The values that follow come from patent US7491849B2, “Oligoamine compounds and derivatives thereof for cancer therapy” (priority 2001, dated 2009).

One data set concerns Calf-thymus DNA. The data set can be described thus: Calf-thymus DNA aggregation (absorbance at 320 nm). Type of data set: biochemical. The following applies: 50 mM NaCl, 1 mM Na-cacodylate pH 7.0. Here is the method: Calf-thymus DNA aggregation by spermine and oligoamines.
Test for DNA Aggregation: DNA aggregation was studied using a Perkin-Elmer Lambda 25 UV/visible spectrophotometer connected to a PTP 6 heating unit using a previously published procedure (see Basu, H S and Marton, L J, “The interaction of spermine and pentamines with DNA,” Biochemical Journal 244:243-246 (1987)). Aggregation was determined in 50 mM NaCl, 1 mM Na-cacodylate pH 7.0 buffer by observing the increase in DNA absorbance (approximately 0.5 A260 units) at 320 nm.

The next data set deals with DuPro. The data set can be described thus: MTT assay, tumor cell growth, DuPro. Type of data set: cell-based. The following applies: 6 days incubation, read-out: ID50 (μM) values for Human Tumor Cell Lines, DuPro. As for the experimental part: (§1) Effect of Saturated Oligoamines on Human Prostate Tumor Cell Growth by the MTT assay. Saturated oligoamines inhibited prostate cancer cell growth in vitro. DU-145 cells were most sensitive and PC-3 cells were less sensitive to the effects of oligoamines. In general, ID50 values of less than 0.5 μM were obtained (Table 2). Even though the PC-3 cells were relatively more resistant to the oligoamines, at a 5 μM concentration the oligoamines reduced the cell number to less than 1% of the control on day 6 of incubation. Tissue cultures and the MTT assay were performed as follows.
(§2) Tissue Culture. Cells were seeded into 75 cm^2 culture flasks with 15 ml of Eagle's minimal essential medium supplemented with 10% fetal calf serum and nonessential amino acids. The flasks were incubated in a humidified 95% air/5% CO2 atmosphere. The cells were grown for at least 24 h to ensure that they are in the log phase of growth and then they were treated with the oligoamines. Cells were harvested by treatment for 5 min with STV (saline A, 0.05% trypsin, 0.02% EDTA) at 37° C. The flasks were rapped on the lab bench, pipetted several times and aliquots of cell suspension were withdrawn and counted using a Coulter particle counter that has been standardized for counting each cell line using a hemacytometer.
(§3) MTT Assay: Trypsinized cell suspensions were diluted to seed 80 μl suspensions containing 500 cells in each well of a 96 well Corning microtiter plate and incubated overnight at 37° C. in a humidified incubator in 5% CO2. 20 μl of appropriately diluted stock solution of each drug were added to the middle 8 columns of cell suspension in the microtiter plates. Each drug concentration was run in quadruplicate. Outer columns of the plates were used for buffer controls. Cells were incubated with the drug for 6 days at 37° C. in 5% CO2/H2O atmosphere. 25 μl of 5 mg/ml solution of 3-(4,5-dimethylthiazol-2-yl)-2,5-diphenyl tetrazolium bromide (MTT) were added to each well and incubated for 4 hours at 37° C. in 5% CO2/H2O incubator. Cells were lysed by incubating overnight with 100 μl lysis buffer (500 ml of the lysis buffer contains: 100 g lauryl sulfate (SDS), 250 ml of N,N-dimethylformamide, and 2 ml of glacial acetic acid, made up to volume with water; pH 4.8).
(§4) The color was monitored at room temperature at 570 nm in a E-max Precision Microplate Reader (Molecular Devices Corporation, Sunnyvale, Calif.) and data was analyzed using cell survival software supplied by Molecular Devices Corporation.
(In general: Tetrazolium dyes change colour on reduction, which living cells bring about.)

The subject of the next data set is DU145. The data set can be described thus: MTT assay, tumor cell growth, DU145. Type of data set: cell-based. The following applies: 6 days incubation, read-out: ID50 (μM) values for Human Tumor Cell Lines, DU145. As for the experimental part:
as §1, §2, §3, §4

The next data set concerns PC-3. Kind of data set: MTT assay, tumor cell growth, PC-3. Type of data set: cell-based. The following applies: 6 days incubation, read-out: ID50 (μM) values for Human Tumor Cell Lines, PC-3. As for the experimental part:
as §1, §2, §3, §4

Another data set has as its system PC-3 Cells. The data set can be described thus: Cellular polyamine and oligoamine levels, PC-3 cells (HPLC). Type of data set: cell-based. Here is the method:
(§5) Cellular Uptake of Oligoamines. There was considerable uptake of oligoamines by the cancer cell lines; see Table 3A (DuPro cells) and Table 3B (PC-3 cells). […] While not wishing to be limited by any particular theory of operation, the cytotoxicity is likely related to their strong aggregation effect on DNA.
(§6) Polyamine Analysis. An appropriate number of cells were taken from harvested samples and centrifuged at 1000 rpm at 4° C. for 5 min. The cells were washed twice with chilled Dulbecco's isotonic phosphate buffer (pH 7.4) by centrifugation at 1000 rpm at 4° C. and resuspended in the same buffer. After the final centrifugation, the supernatant was decanted, and […] of 8% sulfosalycilic acid was added to the cell pellet. The cells were sonicated, and the mixture was kept at 4° C. for at least 1 h. After centrifugation at 8000 g for 5 min, the supernatant was removed for analysis. An appropriate volume (50-100 μl) was fluorescence-labeled by derivatizing with dansyl chloride. Labeled polyamines were loaded onto a C-18 high-performance liquid chromatography column and separated by gradient elution with acetonitrile/water at 50° C. Peaks were detected and quantitated using Shimadzu HPLC fluorescence monitor coupled with a Spectra-Physics peak integrator. Because polyamine levels vary with environmental conditions, control cultures were sampled for each experiment.

A further data set deals with LnCap. Kind of data set: MTT assay, tumor cell growth, LnCap. The conditions noted are these: 6 days incubation, read-out: ID50 (μM) values for Human Tumor Cell Lines, LnCap. Type of data set: cell-based. Here is the method:
as §1, §2, §3, §4

For a further data set, the system named is DuPro Cells. The data set can be described thus: Cellular polyamine and oligoamine levels, DuPro cells (HPLC). Type of data set: cell-based. Here is the method:
as §5, §6

[1] abbreviates: PC-3, Day 4 of Treatment, analog conc. 1 μM.
The mark [2] stands for this setting: PC-3, Day 4 of Treatment, analog conc. 5 μM.
Setting [3] is: PC-3, Day 6 of Treatment, analog conc. 1 μM.
The mark [4] stands for this setting: Day 4 of Treatment, analog conc. 0.8 μM.
Where [5] appears, read: Day 4 of Treatment, analog conc. 1.6 μM.
[6] abbreviates: Day 6 of Treatment, analog conc. 0.8 μM.

Take `NCCCNCCCCNCCCN` [Spermine, reference compound]: the “Conc. (μM) at the start of DNA Aggregation” value (from here on “Conc. (μM) at the start”) with Calf-thymus DNA is 88.5 µM.

With `CCNCCCCNCCCCNCCCCNCCCCNCCCCNCCCCNCCCCNCC.Cl.Cl.Cl.Cl.Cl.Cl.Cl.Cl` [SL-11160], the IC50 came to 0.55 µM with DuPro, 0.13 µM in the data set on DU145, 0.4 µM in the data set with PC-3 and 0.15 µM in the data set on LnCap. For the same molecule, the “Conc. (μM) at the start” value in the data set on Calf-thymus DNA was determined as 4.5 µM. In addition, the “Polyamine levels, Analog (cellular oligoamine level)” value worked out at 0.005 nmoles/10^6 cells in the data set with PC-3 Cells (setting [1]); 0.011 nmoles/10^6 cells in the data set on PC-3 Cells (setting [2]); 0.007 nmoles/10^6 cells in the data set on PC-3 Cells (setting [3]); 0.575 nmoles/10^6 cells in the data set on DuPro Cells (setting [4]); 0.775 nmoles/10^6 cells in the data set with DuPro Cells (setting [5]); 0.410 nmoles/10^6 cells in the data set on DuPro Cells (setting [6]). In addition, the “Polyamine levels, Spd” value with PC-3 Cells (setting [1]) is recorded as 0.097 nmoles/10^6 cells; in the data set with PC-3 Cells (setting [2]), 0.077 nmoles/10^6 cells; in the data set on PC-3 Cells (setting [3]), 0.085 nmoles/10^6 cells; in the data set with DuPro Cells (setting [4]), 0.897 nmoles/10^6 cells; in the data set on DuPro Cells (setting [6]), 1.470 nmoles/10^6 cells. Further, the “Polyamine levels, Spm” value with PC-3 Cells (setting [1]) turned out to be 0.502 nmoles/10^6 cells; in the data set on PC-3 Cells (setting [2]), 0.525 nmoles/10^6 cells; with PC-3 Cells (setting [3]), 0.180 nmoles/10^6 cells; in the data set on DuPro Cells (setting [4]) it was 0.222 nmoles/10^6 cells; in the data set on DuPro Cells (setting [5]), 0.195 nmoles/10^6 cells; in the data set with DuPro Cells (setting [6]), 0.290 nmoles/10^6 cells. The “Polyamine levels, Put” value came out at 0.430 nmoles/10^6 cells in the data set on DuPro Cells (setting [4]), 0.412 nmoles/10^6 cells with DuPro Cells (setting [5]) and 0.675 nmoles/10^6 cells in the data set on DuPro Cells (setting [6]).

Consider `CCNCCCCNCCCCNCCCCNCCCCNCCCCNCCCCNCCCCNCCCCNCCCCNCCCCNCCCCNCCCCNCCCCNCC.Cl.Cl.Cl.Cl.Cl.Cl.Cl.Cl.Cl.Cl.Cl.Cl.Cl.Cl` [SL-11175], for which the IC50 with DuPro worked out at 0.35 µM; in the data set with DU145 it was 0.24 µM; in the data set on PC-3 it was 0.5 µM; in the data set on LnCap, 0.32 µM. Also, in the data set with Calf-thymus DNA, the “Conc. (μM) at the start” value was 2.0 µM. Further, the “Polyamine levels, Analog (cellular oligoamine level)” value was 0.055 nmoles/10^6 cells in the data set with PC-3 Cells (setting [1]); 0.128 nmoles/10^6 cells in the data set with PC-3 Cells (setting [2]); 0.08 nmoles/10^6 cells in the data set on PC-3 Cells (setting [3]); 0.145 nmoles/10^6 cells in the data set on DuPro Cells (setting [4]); 0.150 nmoles/10^6 cells with DuPro Cells (setting [5]); 0.023 nmoles/10^6 cells with DuPro Cells (setting [6]). Also, the “Polyamine levels, Put” value was 0.515 nmoles/10^6 cells in the data set with PC-3 Cells (setting [1]); 0.519 nmoles/10^6 cells with PC-3 Cells (setting [2]); 0.76 nmoles/10^6 cells with PC-3 Cells (setting [3]); 0.157 nmoles/10^6 cells in the data set with DuPro Cells (setting [4]); 0.410 nmoles/10^6 cells with DuPro Cells (setting [5]); 0.155 nmoles/10^6 cells in the data set on DuPro Cells (setting [6]). In addition, in the data set with DuPro Cells (setting [4]), the “Polyamine levels, Spm” value amounted to 0.050 nmoles/10^6 cells.
